Reference: PubChem BioAssay AID2060900 (Molecular Pharmacology Branch, DTP, NCI, 2025)

Test system: 521955-158-R2-J5-PDC complex spheroids, viability
Experiment: Anticancer human tumor 521955-158-R2-J5-PDC patient-derived pancreatic carcinoma cell line growth inhibition [RAS]
Settings: for IC50: curve of first compound; for viability, T/C: stronger effect = lower value
Summary of the method: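 Agents were tested in combination matrices in half-log decrements from a top concentration at or near clinical Cmax (10 microM if undetermined). Targets were multi-cell spheroids of tumour lines plus HUVEC and MSC stromal cells.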

[1] = second compound 0.00316 µM, first compound 0.000949 µM
[2] = second compound 0.00316 µM, first compound 0.003 µM
[3] = second compound 0.00316 µM, first compound 0.00949 µM
[4] = second compound 0.00316 µM, first compound 0.03 µM
[5] = second compound 0.00316 µM, first compound 0.0949 µM
[6] = second compound 0.00316 µM, first compound 0.3 µM
[7] = second compound 0.01 µM, first compound 0.000949 µM
[8] = second compound 0.01 µM, first compound 0.003 µM
[9] = second compound 0.01 µM, first compound 0.00949 µM
[10] = second compound 0.01 µM, first compound 0.03 µM
[11] = second compound 0.01 µM, first compound 0.0949 µM
[12] = second compound 0.01 µM, first compound 0.3 µM
[13] = second compound 0.0316 µM, first compound 0.000949 µM
[14] = second compound 0.0316 µM, first compound 0.003 µM
[15] = second compound 0.0316 µM, first compound 0.00949 µM
[16] = second compound 0.0316 µM, first compound 0.03 µM
[17] = second compound 0.0316 µM, first compound 0.0949 µM
[18] = second compound 0.0316 µM, first compound 0.3 µM
[19] = second compound 0.1 µM, first compound 0.000949 µM
[20] = second compound 0.1 µM, first compound 0.003 µM
[21] = second compound 0.1 µM, first compound 0.00949 µM
[22] = second compound 0.1 µM, first compound 0.03 µM
[23] = second compound 0.1 µM, first compound 0.0949 µM
[24] = second compound 0.1 µM, first compound 0.3 µM
[25] = second compound 0.316 µM, first compound 0.000949 µM
[26] = second compound 0.316 µM, first compound 0.003 µM
[27] = second compound 0.316 µM, first compound 0.00949 µM
[28] = second compound 0.316 µM, first compound 0.03 µM
[29] = second compound 0.316 µM, first compound 0.0949 µM
[30] = second compound 0.316 µM, first compound 0.3 µM
[31] = second compound 1 µM, first compound 0.000949 µM
[32] = second compound 1 µM, first compound 0.003 µM
[33] = second compound 1 µM, first compound 0.00949 µM
[34] = second compound 1 µM, first compound 0.03 µM
[35] = second compound 1 µM, first compound 0.0949 µM
[36] = second compound 1 µM, first compound 0.3 µM
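Also: compound exposure lasted seven days before the viability read.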
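For viability, T/C in this document: spheroids also contain HUVEC endothelial cells and mesenchymal stem cells as stroma.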

Q: Which results are given for `CC(=O)OC12COC1CC(O)C1(C)C(=O)C(O)C3=C(C)C(OC(=O)C(O)C(NC(=O)OC(C)(C)C)c4ccccc4)CC(O)(C(OC(=O)c4ccccc4)C21)C3(C)C` (stereo unspecified) + C=CC(=O)N1CCN(c2nc(OCC3CCCN3C)nc3c(F)c(-c4nc(N)cc(C)c4C(F)(F)F)c(Cl)cc23)C(C)C1?
A: IC50 (second compound 0.00316 µM): < 31.6 nM; IC50 (second compound 0.01 µM): < 31.6 nM; IC50 (second compound 0.0316 µM): < 31.6 nM; IC50 (second compound 0.1 µM): < 31.6 nM; IC50 (second compound 0.316 µM): < 31.6 nM; IC50 (second compound 1 µM): < 31.6 nM; viability, T/C (second compound 0.00316 µM, first compound 0.0316 µM): 37.3%; viability, T/C (second compound 0.00316 µM, first compound 0.1 µM): 34.1%; viability, T/C (second compound 0.00316 µM, first compound 0.316 µM): 24.9%; viability, T/C (second compound 0.00316 µM, first compound 1 µM): 29.8%; viability, T/C (second compound 0.00316 µM, first compound 3.16 µM): 40.8%; viability, T/C (second compound 0.00316 µM, first compound 10 µM): 64.4%; viability, T/C (second compound 0.01 µM, first compound 0.0316 µM): 38.5%; viability, T/C (second compound 0.01 µM, first compound 0.1 µM): 34.3%; viability, T/C (second compound 0.01 µM, first compound 0.316 µM): 21.5%; viability, T/C (second compound 0.01 µM, first compound 1 µM): 30.6%; viability, T/C (second compound 0.01 µM, first compound 3.16 µM): 41.4%; viability, T/C (second compound 0.01 µM, first compound 10 µM): 52.6%; viability, T/C (second compound 0.0316 µM, first compound 0.0316 µM): 39.7%; viability, T/C (second compound 0.0316 µM, first compound 0.1 µM): 40.6%; viability, T/C (second compound 0.0316 µM, first compound 0.316 µM): 28.2%; viability, T/C (second compound 0.0316 µM, first compound 1 µM): 29.7%; viability, T/C (second compound 0.0316 µM, first compound 3.16 µM): 44.9%; viability, T/C (second compound 0.0316 µM, first compound 10 µM): 44.9%; viability, T/C (second compound 0.1 µM, first compound 0.0316 µM): 34.3%; viability, T/C (second compound 0.1 µM, first compound 0.1 µM): 31.5%; viability, T/C (second compound 0.1 µM, first compound 0.316 µM): 33.1%; viability, T/C (second compound 0.1 µM, first compound 1 µM): 25.6%; viability, T/C (second compound 0.1 µM, first compound 3.16 µM): 35.8%; viability, T/C (second compound 0.1 µM, first compound 10 µM): 59.3%; viability, T/C (second compound 0.316 µM, first compound 0.0316 µM): 38.4%; viability, T/C (second compound 0.316 µM, first compound 0.1 µM): 33.9%; viability, T/C (second compound 0.316 µM, first compound 0.316 µM): 21.7%; viability, T/C (second compound 0.316 µM, first compound 1 µM): 34.6%; viability, T/C (second compound 0.316 µM, first compound 3.16 µM): 46.1%; viability, T/C (second compound 0.316 µM, first compound 10 µM): 51.9%; viability, T/C (second compound 1 µM, first compound 0.0316 µM): 31.8%; viability, T/C (second compound 1 µM, first compound 0.1 µM): 32.3%; viability, T/C (second compound 1 µM, first compound 0.316 µM): 19.1%; viability, T/C (second compound 1 µM, first compound 1 µM): 22%; viability, T/C (second compound 1 µM, first compound 3.16 µM): 46.3%; viability, T/C (second compound 1 µM, first compound 10 µM): 55.5%

Q: What does the source list for `CC1(C)CCC(Nc2ncc(C(F)(F)F)c(-c3c[nH]c4c(P(C)(C)=O)c(C#N)ccc34)n2)CN1` (stereo unspecified) + C=CC(=O)N1CCN(c2nc(OCC3CCCN3C)nc3c(F)c(-c4nc(N)cc(C)c4C(F)(F)F)c(Cl)cc23)C(C)C1?
A: IC50 (second compound 0.00316 µM): > 300 nM; IC50 (second compound 0.01 µM): > 300 nM; IC50 (second compound 0.0316 µM): > 300 nM; IC50 (second compound 0.1 µM): > 300 nM; IC50 (second compound 0.316 µM): > 300 nM; IC50 (second compound 1 µM): > 300 nM; viability, T/C [1]: 80.7%; viability, T/C [2]: 73.7%; viability, T/C [3]: 67.7%; viability, T/C [4]: 51.1%; viability, T/C [5]: 49.5%; viability, T/C [6]: 53.3%; viability, T/C [7]: 81.2%; viability, T/C [8]: 78.5%; viability, T/C [9]: 52.6%; viability, T/C [10]: 53%; viability, T/C [11]: 58.3%; viability, T/C [12]: 60.4%; viability, T/C [13]: 75.4%; viability, T/C [14]: 78.7%; viability, T/C [15]: 57.5%; viability, T/C [16]: 55.8%; viability, T/C [17]: 73%; viability, T/C [18]: 53.8%; viability, T/C [19]: 90%; viability, T/C [20]: 86.3%; viability, T/C [21]: 57.9%; viability, T/C [22]: 64.2%; viability, T/C [23]: 65.8%; viability, T/C [24]: 56.9%; viability, T/C [25]: 84.5%; viability, T/C [26]: 76.5%; viability, T/C [27]: 51.3%; viability, T/C [28]: 65.3%; viability, T/C [29]: 67%; viability, T/C [30]: 49.2%; viability, T/C [31]: 106%; viability, T/C [32]: 77.5%; viability, T/C [33]: 56.3%; viability, T/C [34]: 51.9%; viability, T/C [35]: 63.9%; viability, T/C [36]: 55.4%

Q: Which results are given for `CCc1c2c(nc3ccc(O)cc13)-c1cc3c(c(=O)n1C2)COC(=O)[C@]3(O)CC` + C=CC(=O)N1CCN(c2nc(OCC3CCCN3C)nc3c(F)c(-c4nc(N)cc(C)c4C(F)(F)F)c(Cl)cc23)C(C)C1?
A: IC50 (second compound 0.00316 µM): 2.29 nM; IC50 (second compound 0.01 µM): 2.37 nM; IC50 (second compound 0.0316 µM): 3.47 nM; IC50 (second compound 0.1 µM): 2.5 nM; IC50 (second compound 0.316 µM): 2.21 nM; IC50 (second compound 1 µM): 2.82 nM; viability, T/C [1]: 82.8%; viability, T/C [2]: 39.5%; viability, T/C [3]: 20.3%; viability, T/C [4]: 7.87%; viability, T/C [5]: 6.75%; viability, T/C [6]: 6.61%; viability, T/C [7]: 68.7%; viability, T/C [8]: 45.3%; viability, T/C [9]: 18.4%; viability, T/C [10]: 8.97%; viability, T/C [11]: 8.82%; viability, T/C [12]: 4.69%; viability, T/C [13]: 72.5%; viability, T/C [14]: 55.2%; viability, T/C [15]: 13.7%; viability, T/C [16]: 11.2%; viability, T/C [17]: 8.98%; viability, T/C [18]: 5.11%; viability, T/C [19]: 63%; viability, T/C [20]: 47.7%; viability, T/C [21]: 15.2%; viability, T/C [22]: 9.23%; viability, T/C [23]: 6.92%; viability, T/C [24]: 5.21%; viability, T/C [25]: 83.2%; viability, T/C [26]: 38%; viability, T/C [27]: 13%; viability, T/C [28]: 6.67%; viability, T/C [29]: 7.68%; viability, T/C [30]: 4.95%; viability, T/C [31]: 84.2%; viability, T/C [32]: 48.2%; viability, T/C [33]: 13.4%; viability, T/C [34]: 9.97%; viability, T/C [35]: 6.39%; viability, T/C [36]: 4.12%
